Assay results taken from ChEMBL document CHEMBL2057064, “Activation of human RNase L by 2'- and 5'-O-methylphosphonate-modified oligoadenylates” (Bioorg Med Chem Lett, 2012).
The source made the active and inactive calls. The rule behind the calls is not given here.

molecular target: T1, 2-5A-dependent ribonuclease (Homo sapiens) (UniProt Q05823); assay: Antagonist activity at human RNase L expressed in Escherichia coli BL21 (DE3) cells assessed as RNA cleavage using Cy5-C11-rUU-C7-BHQ2 as substrate by FRET assay in presence of natural activator pAAAA; assay type: functional
T1 sequence (whole entry): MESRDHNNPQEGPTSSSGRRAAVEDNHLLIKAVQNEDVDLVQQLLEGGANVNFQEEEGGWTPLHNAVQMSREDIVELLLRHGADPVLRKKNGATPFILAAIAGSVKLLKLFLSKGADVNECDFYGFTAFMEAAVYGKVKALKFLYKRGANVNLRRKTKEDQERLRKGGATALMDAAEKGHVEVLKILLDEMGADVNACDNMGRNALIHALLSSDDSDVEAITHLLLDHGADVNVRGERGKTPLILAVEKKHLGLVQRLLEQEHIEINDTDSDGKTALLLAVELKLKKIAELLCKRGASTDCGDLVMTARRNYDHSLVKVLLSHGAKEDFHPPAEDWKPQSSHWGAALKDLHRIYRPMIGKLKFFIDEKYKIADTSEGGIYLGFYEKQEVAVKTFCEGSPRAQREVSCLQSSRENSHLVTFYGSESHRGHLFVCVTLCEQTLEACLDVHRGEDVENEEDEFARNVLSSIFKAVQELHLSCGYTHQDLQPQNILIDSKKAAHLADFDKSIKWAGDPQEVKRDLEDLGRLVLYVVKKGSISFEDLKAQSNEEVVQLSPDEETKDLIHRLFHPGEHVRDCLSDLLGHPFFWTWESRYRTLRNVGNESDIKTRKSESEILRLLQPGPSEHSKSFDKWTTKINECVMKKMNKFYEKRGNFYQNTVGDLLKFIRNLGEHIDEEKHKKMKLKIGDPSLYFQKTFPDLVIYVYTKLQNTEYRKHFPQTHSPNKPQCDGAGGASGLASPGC

inhibition	Structure (SMILES)
inactive	Nc1ncnc2c1ncn2[C@@H]1O[C@H](COCP(=O)(O)O[C@@H]2[C@H](O)[C@@H](COP(=O)(O)O[C@H]3[C@H](O)[C@@H](COCP(=O)(O)O[C@H]4[C@H](O)[C@@H](COCP(=O)(O)O)O[C@H]4n4cnc5c(N)ncnc54)O[C@H]3n3cnc4c(N)ncnc43)O[C@H]2n2cnc3c(N)ncnc32)[C@@H](O)[C@@H]1O
inactive	Nc1ncnc2c1ncn2[C@@H]1O[C@H](COCP(=O)(O)O[C@@H]2[C@H](O)[C@@H](COP(=O)(O)O[C@H]3[C@H](O)[C@@H](COCP(=O)(O)O[C@@H]4[C@H](O)[C@@H](COP(=O)(O)O)O[C@H]4n4cnc5c(N)ncnc54)O[C@H]3n3cnc4c(N)ncnc43)O[C@H]2n2cnc3c(N)ncnc32)[C@@H](O)[C@@H]1O
inactive	Nc1ncnc2c1ncn2[C@@H]1O[C@H](COP(=O)(O)O[C@@H]2[C@H](O)[C@@H](COP(=O)(O)O[C@@H]3[C@H](O)[C@@H](COCP(=O)(O)O[C@@H]4[C@H](O)[C@@H](COCP(=O)(O)O)O[C@H]4n4cnc5c(N)ncnc54)O[C@H]3n3cnc4c(N)ncnc43)O[C@H]2n2cnc3c(N)ncnc32)[C@@H](O)[C@H]1O
inactive	Nc1ncnc2c1ncn2[C@@H]1O[C@H](COCP(=O)(O)O[C@@H]2[C@@H](O)[C@@H](COCP(=O)(O)O[C@@H]3[C@H](O)[C@@H](COP(=O)(O)O[C@@H]4[C@@H](O)[C@@H](COCP(=O)(O)O)O[C@H]4n4cnc5c(N)ncnc54)O[C@H]3n3cnc4c(N)ncnc43)O[C@H]2n2cnc3c(N)ncnc32)[C@H](O)[C@H]1O
inactive	Nc1ncnc2c1ncn2[C@@H]1O[C@H](COP(=O)(O)O[C@@H]2[C@@H](O)[C@@H](COCP(=O)(O)O[C@@H]3[C@H](O)[C@@H](COP(=O)(O)O[C@@H]4[C@@H](O)[C@@H](COCP(=O)(O)O)O[C@H]4n4cnc5c(N)ncnc54)O[C@H]3n3cnc4c(N)ncnc43)O[C@H]2n2cnc3c(N)ncnc32)[C@@H](O)[C@H]1O
inactive	Nc1ncnc2c1ncn2[C@@H]1O[C@H](COCP(=O)(O)O[C@@H]2[C@@H](O)[C@@H](COCP(=O)(O)O[C@@H]3[C@@H](O)[C@@H](COCP(=O)(O)O[C@@H]4[C@@H](O)[C@@H](COCP(=O)(O)O)O[C@H]4n4cnc5c(N)ncnc54)O[C@H]3n3cnc4c(N)ncnc43)O[C@H]2n2cnc3c(N)ncnc32)[C@H](O)[C@H]1O
inactive	Nc1ncnc2c1ncn2[C@@H]1O[C@H](COCP(=O)(O)O[C@@H]2[C@H](O)[C@@H](COP(=O)(O)O[C@@H]3[C@@H](O)[C@@H](COCP(=O)(O)O[C@@H]4[C@@H](O)[C@@H](COCP(=O)(O)O)O[C@H]4n4cnc5c(N)ncnc54)O[C@H]3n3cnc4c(N)ncnc43)O[C@H]2n2cnc3c(N)ncnc32)[C@H](O)[C@H]1O
inactive	Nc1ncnc2c1ncn2[C@@H]1O[C@H](COP(=O)(O)O[C@@H]2[C@@H](O)[C@@H](COCP(=O)(O)O[C@@H]3[C@@H](O)[C@@H](COCP(=O)(O)O[C@@H]4[C@H](O)[C@@H](COP(=O)(O)O)O[C@H]4n4cnc5c(N)ncnc54)O[C@H]3n3cnc4c(N)ncnc43)O[C@H]2n2cnc3c(N)ncnc32)[C@@H](O)[C@H]1O
inactive	Nc1ncnc2c1ncn2[C@@H]1O[C@H](COP(=O)(O)CO[C@H]2[C@H](O)[C@@H](COP(=O)(O)O[C@@H]3[C@H](O)[C@@H](COP(=O)(O)CO[C@H]4[C@H](O)[C@@H](COP(=O)(O)O)O[C@H]4n4cnc5c(N)ncnc54)O[C@H]3n3cnc4c(N)ncnc43)O[C@H]2n2cnc3c(N)ncnc32)[C@@H](O)[C@H]1O
inactive	Nc1ncnc2c1ncn2[C@@H]1O[C@H](COCP(=O)(O)O[C@@H]2[C@H](O)[C@@H](COCP(=O)(O)O[C@@H]3[C@H](O)[C@@H](COP(=O)(O)O[C@@H]4[C@H](O)[C@@H](COP(=O)(O)O)O[C@H]4n4cnc5c(N)ncnc54)O[C@H]3n3cnc4c(N)ncnc43)O[C@H]2n2cnc3c(N)ncnc32)[C@@H](O)[C@H]1O
inactive	Nc1ncnc2c1ncn2[C@@H]1O[C@H](COP(=O)(O)CO[C@@H]2[C@@H](O)[C@@H](COP(=O)(O)O[C@@H]3[C@H](O)[C@@H](COP(=O)(O)CO[C@@H]4[C@@H](O)[C@@H](COP(=O)(O)O)O[C@H]4n4cnc5c(N)ncnc54)O[C@H]3n3cnc4c(N)ncnc43)O[C@H]2n2cnc3c(N)ncnc32)[C@@H](O)[C@H]1O
inactive	Nc1ncnc2c1ncn2[C@@H]1O[C@H](COP(=O)(O)CO[C@@H]2[C@@H](O)[C@@H](COP(=O)(O)CO[C@@H]3[C@@H](O)[C@@H](COP(=O)(O)CO[C@@H]4[C@@H](O)[C@@H](COP(=O)(O)O)O[C@H]4n4cnc5c(N)ncnc54)O[C@H]3n3cnc4c(N)ncnc43)O[C@H]2n2cnc3c(N)ncnc32)[C@@H](O)[C@H]1O
inactive	Nc1ncnc2c1ncn2[C@@H]1O[C@H](COP(=O)(O)O[C@@H]2[C@H](O)[C@@H](COP(=O)(O)CO[C@@H]3[C@@H](O)[C@@H](COP(=O)(O)CO[C@@H]4[C@@H](O)[C@@H](COP(=O)(O)O)O[C@H]4n4cnc5c(N)ncnc54)O[C@H]3n3cnc4c(N)ncnc43)O[C@H]2n2cnc3c(N)ncnc32)[C@@H](O)[C@H]1O
inactive	Nc1ncnc2c1ncn2[C@@H]1O[C@H](COCP(=O)(O)O[C@@H]2[C@@H](O)[C@@H](COCP(=O)(O)O[C@@H]3[C@H](O)[C@@H](COP(=O)(O)O[C@@H]4[C@H](O)[C@@H](COP(=O)(O)O)O[C@H]4n4cnc5c(N)ncnc54)O[C@H]3n3cnc4c(N)ncnc43)O[C@H]2n2cnc3c(N)ncnc32)[C@H](O)[C@H]1O
inactive	Nc1ncnc2c1ncn2[C@@H]1O[C@H](COCP(=O)(O)O[C@@H]2[C@H](O)[C@@H](COCP(=O)(O)O[C@@H]3[C@H](O)[C@@H](COCP(=O)(O)O[C@@H]4[C@H](O)[C@@H](COP(=O)(O)O)O[C@H]4n4cnc5c(N)ncnc54)O[C@H]3n3cnc4c(N)ncnc43)O[C@H]2n2cnc3c(N)ncnc32)[C@@H](O)[C@H]1O
inactive	Nc1ncnc2c1ncn2[C@@H]1O[C@H](COCP(=O)(O)O[C@@H]2[C@H](O)[C@@H](COP(=O)(O)O[C@@H]3[C@H](O)[C@@H](COP(=O)(O)O[C@@H]4[C@@H](O)[C@@H](COCP(=O)(O)O)O[C@H]4n4cnc5c(N)ncnc54)O[C@H]3n3cnc4c(N)ncnc43)O[C@H]2n2cnc3c(N)ncnc32)[C@H](O)[C@H]1O
inactive	Nc1ncnc2c1ncn2[C@@H]1O[C@H](COCP(=O)(O)O[C@@H]2[C@H](O)[C@@H](COP(=O)(O)O[C@@H]3[C@H](O)[C@@H](COP(=O)(O)O[C@H]4[C@H](O)[C@@H](COCP(=O)(O)O)O[C@H]4n4cnc5c(N)ncnc54)O[C@H]3n3cnc4c(N)ncnc43)O[C@H]2n2cnc3c(N)ncnc32)[C@@H](O)[C@@H]1O
inactive	Nc1ncnc2c1ncn2[C@@H]1O[C@H](COCP(=O)(O)O[C@@H]2[C@H](O)[C@@H](COCP(=O)(O)O[C@@H]3[C@H](O)[C@@H](COCP(=O)(O)O[C@@H]4[C@H](O)[C@@H](COCP(=O)(O)O)O[C@H]4n4cnc5c(N)ncnc54)O[C@H]3n3cnc4c(N)ncnc43)O[C@H]2n2cnc3c(N)ncnc32)[C@@H](O)[C@H]1O
inactive	Nc1ncnc2c1ncn2[C@@H]1O[C@H](COCP(=O)(O)O[C@@H]2[C@H](O)[C@@H](COCP(=O)(O)O[C@@H]3[C@H](O)[C@@H](COP(=O)(O)O[C@@H]4[C@H](O)[C@@H](COCP(=O)(O)O)O[C@H]4n4cnc5c(N)ncnc54)O[C@H]3n3cnc4c(N)ncnc43)O[C@H]2n2cnc3c(N)ncnc32)[C@@H](O)[C@H]1O
